Measurements taken from US20040259875A1, “Amine derivatives” (priority 2001, published 2004).

target: T1, human VR1 (Homo sapiens, UniProt Q8NER1); assay: Capsaicin-induced Ca2+ influx in the human VR1-transfected CHO cell line (Assay 1); type: cell-based; details: capsaicin-induced Ca2+ flux; compounds or the salt thereof (e.g., potassium salt); purity about 40 to 90%
T1 construct: expressed in transfected cells
From the text: [Measurement of Capsaicin-induced Ca^2+ Influx in the Human VR1-transfected CHO Cell Line] (Assay 1)
(1) Establishment of the human VR1-CHOluc9aeq cell line
Human vanilloid receptor (hVR1) cDNA was cloned from libraries of axotomized dorsal root ganglia (WO2000/29577). The cloned hVR1 cDNA was constructed with pcDNA3 vector and transfected into a CHOluc9aeq cell line. The cell line contains aequorin and CRE-luciferase reporter genes as read-out signals. The transfectants were cloned by limiting dilution in selection medium (DMEM/F12 medium (Gibco BRL) supplemented with 10% FCS, 1.4 mM Sodium pyruvate, 20 mM HEPES, 0.15% Sodium bicarbonate, 100 U/ml penicillin, 100 μ/ml streptomycin, 2 mM glutamine, non-essential amino acids and 2 mg/ml G418). Ca^2+ influx was examined in the capsaicin-stimulated clones. […] The human VR1-CHOluc9aeq cells were maintained in the selection medium and passaged every 3-4 days at 1-2.5×10^5 cells/flask ([…])
(2) Measurement of Ca^2+ influx using FDSS-3000
Human VR1-CHOluc9aeq cells were suspended in a culture medium which is the same as the selection medium except for G418 and seeded at a density of 1,000 cells per well into 384-well plates (black walled clear-base/Nalge Nunc International). Following the culture for 48 hrs the medium was changed to 2 μM Fluo-3 AM (Molecular Probes) and 0.02% Puronic F-127 in assay buffer (Hank's balanced salt solution (HBSS), 17 mM HEPES (pH7.4), 1 mM Probenecid, 0.1% BSA) and the cells were incubated for 60 min at 25° C. After washing twice with assay buffer the cells were incubated with a test compound or vehicle for 20 min at 25° C. Mobilization of cytoplasmic Ca^2+ was measured by FDSS-3000 (λex=488 nm, λem=540 nm/Hamamatsu Photonics) for 60 sec after the stimulation with 10 nM of capsaicin (Nacalai Tesque). Integral R of the fluorescence changes was calculated in the samples treated with a test compound and vehicle respectively. Inhibitory effect of the compound was calculated by a comparison of the integral R values.

T1 sequence (Q8NER1 whole entry): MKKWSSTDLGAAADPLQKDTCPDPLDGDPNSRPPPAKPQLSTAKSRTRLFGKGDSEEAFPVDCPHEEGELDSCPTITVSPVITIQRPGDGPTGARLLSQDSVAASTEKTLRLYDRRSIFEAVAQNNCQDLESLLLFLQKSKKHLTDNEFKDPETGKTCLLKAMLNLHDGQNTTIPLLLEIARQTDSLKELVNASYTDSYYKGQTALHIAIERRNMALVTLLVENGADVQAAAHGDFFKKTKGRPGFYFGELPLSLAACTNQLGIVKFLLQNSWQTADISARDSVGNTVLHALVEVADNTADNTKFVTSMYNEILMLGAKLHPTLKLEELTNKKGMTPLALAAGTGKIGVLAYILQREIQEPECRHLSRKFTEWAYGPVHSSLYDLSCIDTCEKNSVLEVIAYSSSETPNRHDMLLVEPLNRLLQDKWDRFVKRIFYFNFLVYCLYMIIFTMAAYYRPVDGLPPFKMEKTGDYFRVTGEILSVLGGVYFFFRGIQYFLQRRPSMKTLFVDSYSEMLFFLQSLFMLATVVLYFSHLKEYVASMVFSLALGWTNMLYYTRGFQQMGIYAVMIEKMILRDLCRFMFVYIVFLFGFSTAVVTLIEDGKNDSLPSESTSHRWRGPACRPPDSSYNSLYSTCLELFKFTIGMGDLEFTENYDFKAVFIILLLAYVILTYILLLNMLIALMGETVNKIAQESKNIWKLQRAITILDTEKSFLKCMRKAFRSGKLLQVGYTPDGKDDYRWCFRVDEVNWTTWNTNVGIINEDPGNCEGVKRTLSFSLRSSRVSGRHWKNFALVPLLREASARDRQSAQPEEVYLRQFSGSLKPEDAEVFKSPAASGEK

| IC50 [nM] | SMILES |
| --- | --- |
| ≤ 10 | O=C(Nc1ccc(Cl)c(C(F)(F)F)c1)Nc1c(Br)cc(Br)c2ccc(O)cc12 [N-[4-chloro-3-(trifluoromethyl)phenyl]-N′-(2,4-dibromo-7-hydroxy-1-naphthyl)urea] |
| ≤ 10 | O=C(Nc1ccc(Cl)c(C(F)(F)F)c1)Nc1c(Cl)cc(Cl)c2ccc(O)cc12 [N-[4-chloro-3-(trifluoromethyl)phenyl]-N′-(2,4-dichloro-7-hydroxy-1-naphthyl)urea] |
| ≤ 10 | Cc1ccc(NC(=O)Nc2ccc(Cl)c(C(F)(F)F)c2)c2cc(O)ccc12 [N-[4-chloro-3-(trifluoromethyl)phenyl]-N′-(7-hydroxy-4-methyl-1-naphthyl)urea] |
| ≤ 10 | CCOC(=O)c1cccc(NC(=O)Nc2c(Cl)cc(Cl)c3ccc(O)cc23)c1 [ethyl 3-({[(2,4-dichloro-7-hydroxy-1-naphthyl)amino]carbonyl}amino)benzoate] |
